Experimental data as given in patent US20160250285A1, “NEUROPROTECTIVE PEPTIDES” (priority 2013, published 2016).
Where two headings read alike, the source gives them in different places. Square brackets hold non-standard residues; d marks the D form.

Experiments:
[1] = test system: primary cortical neuronal cultures; details: for neuroprotection when added immediately after glutamic acid exposure: 0 min post-insult (FIG. 1d); for neuroprotection when added 15 minutes post-insult: 15 min post-glutamic acid (FIG. 1d); for neuroprotection (neuronal viability): peptide 15 min prior to and during glutamic acid exposure, viability 24 h, MTS
Description: Briefly, cortical tissue from E18-E19 Sprague-Dawley rats was dissociated in Dulbecco's modified Eagle medium (DMEM; Invitrogen, Australia) supplemented with 1.3 mM L-cysteine, 0.9 mM NaHCOa, 10 units/ml papain (Sigma, USA) and 50 units/ml DNase (Sigma) and washed in cold DMEM/10% horse serum. Neurons were resuspended in Neurobasal (Invitrogen) containing 2% B27 supplement (B27; Invitrogen). Before seeding, 96-well sized glass wells (6 mm diameter, ProTech, Australia) or 96-well plastic plates (ProSciTech, Australia) were coated with poly-D-lysine overnight ([…]: 50 mg/mL; 70-150 K, Sigma). […] Neurons were plated to obtain ≈10,000 viable neurons for each well on day in vitro 11-12. […] On day in vitro 4 one third of the culture medium was removed and replaced with fresh Neurobasal/2% B27 containing the mitotic inhibitor, cytosine arabinofuraNOside (1 mM final concentration; Sigma). On day in vitro 8 one half of the culture medium was replaced with Neurobasal/2% B27.
(§1) To induce excitotoxicity, 50 μl of Neurobasal/2% B27 containing glutamic acid (200 μM) or kainic acid (400 μM) or NMDA (200 μM) was added to the culture wells (100 μM glutamic acid, 200 μM kainic acid and NMDA 100 μM final concentration). Cultures were incubated at 37° C. in the CO2 incubator for 5 minutes for glutamic acid, 45 minutes for kainic acid and 10 minutes for NMDA exposure, after which time the media was replaced with 100 μl of 50% Neurobasal/2% N2 supplement (Invitrogen) and 50% balanced salt solution (BSS; see below). Cultures were incubated for a further 24 hours at 37° C. in the CO2 incubator. The untreated controls with or without glutamic acid or kainic acid treatment received the same wash steps and media additions.
Following this step, cultures were treated as described above. Untreated controls with or without glutamic acid exposure received the same wash steps and media additions. In addition, a post-glutamic acid exposure CPP treatment (5 μM) experiment was performed for the R9 peptide and the JNKI-1D-TAT control peptide.
For pre-glutamic acid exposure experiments, neurons were exposed to peptide(s) for a 10 minute period, immediately before or 1, 2, 3, 4 or 5 hours prior to glutamic acid exposure. […] At the relevant peptide pre-treatment time, media was removed and replaced with 100 μl of Neurobasal/2%. […] Following 5-minute glutamic acid exposure, neuronal culture wells were treated as described above. For all experiments untreated controls with or without glutamic acid treatment underwent the same incubation steps and media additions.
Heparin (for injection) was obtained from Pfizer (1000 IU/ml). Two different heparin experiments were performed: 1. Peptides were incubated with heparin (20 IU/ml) in Neurobasal/B27 for 5 minutes at room temperature, before addition to culture wells (50 μl) for 15 minutes at 37° C. in the CO2 incubator. Following the incubation period, media in wells was removed and replaced with 100 μl of Neurobasal/2% B27 containing glutamic acid (100 μM), and subsequently treated as described above; 2. Media in wells was replaced with Neurobasal/2% B27 containing heparin (50 μl; 40 IU/ml) and incubated for 5 minutes at 37° C. in the CO2 incubator. After the incubation period, peptides or glutamate receptor blockers (MK801/CNQX) in Neurobasal/2% B27 (50 μl) were added to the culture wells and cultures incubated for a further 10 minutes at 37° C. in the CO2 incubator. Following the incubation period, media in wells was removed and replaced with 100 μl of Neurobasal/2% B27 containing glutamic acid (100 μM), and subsequently treated as described above. For all experiments, non-heparin treated peptide controls with glutamic acid treatment underwent the same incubation steps and media additions.
Twenty-four hours after insult, neuronal cultures were examined by light microscopy for qualitative assessment of neuronal cell viability.

[2] = test system: primary cortical neuronal cultures; test: NMDA excitotoxicity model; format: cell-based, rat; details: peptide 15 min before and during NMDA exposure (FIG. 37)
Description: Establishment of cortical cultures was as previously described (Meloni et al. 2001). Briefly, cortical tissue from E18-E19 Sprague-Dawley rats was dissociated in Dulbecco's modified Eagle medium (DMEM; Invitrogen, Australia) supplemented with 1.3 mM L-cysteine, 0.9 mM NaHCOa, 10 units/ml papain (Sigma, USA) and 50 units/ml DNase (Sigma) and washed in cold DMEM/10% horse serum. Neurons were resuspended in Neurobasal (Invitrogen) containing 2% B27 supplement (B27; Invitrogen). Before seeding, 96-well sized glass wells (6 mm diameter, ProTech, Australia) or 96-well plastic plates (ProSciTech, Australia) were coated with poly-D-lysine overnight ([…]: 50 mg/mL; 70-150 K, Sigma). […]
Twenty-four hours after insult, neuronal cultures were examined by light microscopy for qualitative assessment of neuronal cell viability. Neuronal viability was quantitatively measured by 3-(4,5,dimethyliazol-2-yl)-5-(3-carboxymethoxy-phenyl)-2-(4-sulfophenyl)-2H-tetrazolium salt (MTS) assay (Promega, Australia). The MTS assay measures the cellular conversion of the tetrazolium salt to a water-soluble brown formazan salt, which is detected spectrophotometrically at 490 nm. MTS absorbance data were converted to reflect proportional cell viability relative to both the untreated and treated controls, with the untreated control taken as 100% viability, and presented as mean±SEM. […]

[3] = test system: intracellular calcium influx in neuronal cultures; test: Intracellular calcium influx (Fura-2 AM) after glutamic acid; format: cell-based, rat; details: peptide 5 μM for 10 min, removed before 100 μM glutamic acid (FIG. 44)
Description: Fura-2 AM was used for intracellular calcium assessment. Representative fluorescent Fura-2 AM tracers; fluorescence intensity (FI) of neuronal cultures 30 sec before and following addition (arrow) of glutamic acid (100 μM final concentration). Peptides or glutamate receptor blockers were added to neuronal cultures for 10 min and removed (time 0) before glutamic acid. Values are mean±SE; n=3. Peptide concentration was 5 μM.
Briefly, cortical tissue from E18-E19 Sprague-Dawley rats was dissociated in Dulbecco's modified Eagle medium (DMEM; Invitrogen, Australia) supplemented with 1.3 mM L-cysteine, 0.9 mM NaHCOa, 10 units/ml papain (Sigma, USA) and 50 units/ml DNase (Sigma) and washed in cold DMEM/10% horse serum. Neurons were resuspended in Neurobasal (Invitrogen) containing 2% B27 supplement (B27; Invitrogen). Before seeding, 96-well sized glass wells (6 mm diameter, ProTech, Australia) or 96-well plastic plates (ProSciTech, Australia) were coated with poly-D-lysine overnight (50 ml/well: 50 mg/mL; 70-150 K, Sigma). Excess poly-D-lysine solution was then removed and replaced with Neurobasal (containing 2% B27; 4% fetal bovine serum; 1% horse serum; 62.5 mM glutamate; 25 mM 2-mercaptoethanol; and 30 mg/mL streptomycin and 30 mg/mL penicillin). Neurons were plated to obtain ≈10,000 viable neurons for each well on day in vitro 11-12. Neuronal cultures were maintained in a CO2 incubator (5% CO2, 95% air balance, 98% humidity) at 37° C. On day in vitro 4 one third of the culture medium was removed and replaced with fresh Neurobasal/2% B27 containing the mitotic inhibitor, cytosine arabinofuraNOside (1 mM final concentration; Sigma). On day in vitro 8 one half of the culture medium was replaced with Neurobasal/2% B27. Cultures were used on day in vitro 11 or 12 after which time they routinely consist of >97% neurons and 1-3% astrocytes (Meloni et al. 2001).

[4] = test system: primary cortical neuronal cultures; details: values from Meade et al. (2010a,b); read-out: IC50: Kainic acid model; cited from earlier work
[5] = test system: primary cortical neuronal cultures; details: FIG. 2
Description: Establishment of cortical cultures was as previously described (Meloni et al. 2001). Briefly, cortical tissue from E18-E19 Sprague-Dawley rats was dissociated in Dulbecco's modified Eagle medium (DMEM; Invitrogen, Australia) supplemented with 1.3 mM L-cysteine, 0.9 mM NaHCOa, 10 units/ml papain (Sigma, USA) and 50 units/ml DNase (Sigma) and washed in cold DMEM/10% horse serum. Neurons were resuspended in Neurobasal (Invitrogen) containing 2% B27 supplement (B27; Invitrogen). Before seeding, 96-well sized glass wells (6 mm diameter, ProTech, Australia) or 96-well plastic plates (ProSciTech, Australia) were coated with poly-D-lysine overnight ([…]: 50 mg/mL; 70-150 K, Sigma). Excess poly-D-lysine solution was then removed and replaced with Neurobasal (containing 2% B27; 4% fetal bovine serum; 1% horse serum; […] glutamate; […] 2-mercaptoethanol; and […]). Neurons were plated to obtain ≈10,000 viable neurons for each well on day in vitro 11-12. Neuronal cultures were maintained in a CO2 incubator (5% CO2, 95% air balance, 98% humidity) at 37° C. On day in vitro 4 one third of the culture medium was removed and replaced with fresh Neurobasal/2% B27 containing the mitotic inhibitor, cytosine arabinofuraNOside (1 mM final concentration; Sigma). On day in vitro 8 one half of the culture medium was replaced with Neurobasal/2% B27. Cultures were used on day in vitro 11 or 12 after which time they routinely consist of >97% neurons and 1-3% astrocytes (Meloni et al. 2001).
as §1, with “Peptides were added to culture wells (96-well plate format) 15 minutes prior to glutamic acid or kainic acid exposure by removing media and adding 50 μl of Neurobasal/2% 327 containing CPPs, control peptides or MK801/CNQX. To” for “To”
Twenty-four hours after insult, neuronal cultures were examined by light microscopy for qualitative assessment of neuronal cell viability. Neuronal viability was quantitatively measured by 3-(4,5,dimethyliazol-2-yl)-5-(3-carboxymethoxy-phenyl)-2-(4-sulfophenyl)-2H-tetrazolium salt (MTS) assay (Promega, Australia). The MTS assay measures the cellular conversion of the tetrazolium salt to a water-soluble brown formazan salt, which is detected spectrophotometrically at 490 nm. MTS absorbance data were converted to reflect proportional cell viability relative to both the untreated and treated controls, with the untreated control taken as 100% viability, and presented as mean±SEM. For studies using astrocytes, bEND3, and SH-Y5Y cells, raw MTS data was used to generate graphs. Viability data was analysed by ANOVA, followed by post-hoc Fischer's PLSD test, with P<0.05 values considered statistically significant. Four- to six wells were used in all assays.

[6] = test system: primary cortical neuronal cultures; details: values from Meade et al. (2010a,b); read-out: IC50: Glutamic acid model; cited from earlier work
[7] = test system: primary cortical neuronal cultures; test: In vitro ischemia / oxygen-glucose deprivation (OGD) model, neurons; format: cell-based, rat; details: peptide present during in vitro ischemia and at 50% dose after (FIG. 3a)
Description: Establishment of cortical cultures was as previously described (Meloni et al. 2001). Briefly, cortical tissue from E18-E19 Sprague-Dawley rats was dissociated in Dulbecco's modified Eagle medium (DMEM; Invitrogen, Australia) supplemented with 1.3 mM L-cysteine, 0.9 mM NaHCOa, 10 units/ml papain (Sigma, USA) and 50 units/ml DNase (Sigma) and washed in cold DMEM/10% horse serum. Neurons were resuspended in Neurobasal (Invitrogen) containing 2% B27 supplement (B27; Invitrogen). Before seeding, 96-well sized glass wells (6 mm diameter, ProTech, Australia) or 96-well plastic plates (ProSciTech, Australia) were coated with poly-D-lysine overnight (50 ml/well: 50 mg/mL; 70-150 K, Sigma). Excess poly-D-lysine solution was then removed and replaced with Neurobasal (containing 2% B27; 4% fetal bovine serum; 1% horse serum; 62.5 mM glutamate; 25 mM 2-mercaptoethanol; and 30 mg/mL streptomycin and 30 mg/mL penicillin). Neurons were plated to obtain ≈10,000 viable neurons for each well on day in vitro 11-12. Neuronal cultures were maintained in a CO2 incubator (5% CO2, 95% air balance, 98% humidity) at 37° C. On day in vitro 4 one third of the culture medium was removed and replaced with fresh Neurobasal/2% B27 containing the mitotic inhibitor, cytosine arabinofuraNOside (1 mM final concentration; Sigma). On day in vitro 8 one half of the culture medium was replaced with Neurobasal/2% B27. Cultures were used on day in vitro 11 or 12 after which time they routinely consist of >97% neurons and 1-3% astrocytes (Meloni et al. 2001).
The in vitro ischemia model used for primary cortical neuronal cultures was performed as previously described (Meloni et at 2011) Briefly, culture media was removed from wells (glass 96-well plate format) and washed with 315 μl of glucose free balanced salt solution (BSS; mM: 116 NaCl, 5.4 KCl, 1.8 CaCl2, 0.8 MgSO4, 1 NaH2PO4; pH 6.9) before the addition of 60 μl BSS containing cell penetrating or control peptides (see Table 1). A non-peptide positive control consisting of the glutamate receptor blockers (5 μM MK801/5 μM 6-cyano-7-nitroquinoxaline: MK801/CNQX) was also included. In vitro ischemia was initiated by placing wells in an anaerobic incubator (Don Whitely Scientific, England; atmosphere of 5% CO2, 10% H2 and 85% argon, 98% humidity) at 37° C. for 55 minutes. Upon removal from the anaerobic incubator, 60 μl of Neurobasal/2% N2 supplement was added to the wells and cultures incubated for a further 24 hours at 37° C. in the CO2 incubator. Control cultures received the same BSS wash procedures and media additions as ischemic treated cultures before incubation at 37° C. in the CO2 incubator.
Control cultures underwent the same BSS wash procedures and media additions as OGD treated cultures.
Twenty-four hours after insult, neuronal cultures were examined by light microscopy for qualitative assessment of neuronal cell viability. Neuronal viability was quantitatively measured by 3-(4,5,dimethyliazol-2-yl)-5-(3-carboxymethoxy-phenyl)-2-(4-sulfophenyl)-2H-tetrazolium salt (MTS) assay (Promega, Australia). The MTS assay measures the cellular conversion of the tetrazolium salt to a water-soluble brown formazan salt, which is detected spectrophotometrically at 490 nm. MTS absorbance data were converted to reflect proportional cell viability relative to both the untreated and treated controls, with the untreated control taken as 100% viability, and presented as mean±SEM. […] Viability data was analysed by ANOVA, followed by post-hoc Fischer's PLSD test, with P<0.05 values considered statistically significant. Four- to six wells were used in all assays.

Substance | neuroprotection when added immediately after glutamic acid exposure [1] | neuroprotection when added 15 minutes post-insult [1] | neuroprotection, milder insult ([1]; FIG. 1i, comparison at 0.5 μM and 1 μM) | neuroprotection (neuronal viability) ([1]; listed as TAT-NR29C) | neuroprotection [2] | calcium influx after glutamic acid [3] | neuroprotection when added immediately after glutamic acid exposure ([1]; listed as JNKI-1 D-TAT) | neuroprotection when added 15 minutes post-insult ([1]; listed as JNKI-1 D-TAT) | neuroprotection (neuronal viability) [1] | neuroprotection (neuronal viability) ([1]; listed as JNKI-1-TATD) | IC50 [4] | neuroprotection [5] | IC50 [6] | effect of heparin on neuroprotective action ([1]; heparin 20 IU/ml with peptide or 40 IU/ml on cultures (FIGS. 39, 40)) | neuroprotection [7]
H-GRKKRRQRRR-KLSSIESDV-NH2 (H-GRKKRRQRRRKLSSIESDV-NH2) [NR2B9c-TAT, reference compound] | did not significantly increase neuronal survival | did not significantly increase neuronal survival | ineffective | ineffective | low level neuroprotection | to varying degrees reduced calcium influx | – | – | – | – | – | – | – | – | –
H-tdqsrpvqpflnlttprkprpp-rrrqrrkkrG-NH2 (H-[dT][dD][dQ][dS][dR][dP][dV][dQ][dP][dF][dL][dN][dL][dT][dT][dP][dR][dK][dP][dR][dP][dP][dR][dR][dR][dQ][dR][dR][dK][dK][dR]G-NH2; SMILES CC(C)C[C@@H](NC(=O)[C@@H](Cc1ccccc1)NC(=O)[C@H]1CCCN1C(=O)[C@@H](CCC(N)=O)NC(=O)[C@H](NC(=O)[C@H]1CCCN1C(=O)[C@@H](CCCNC(=N)N)NC(=O)[C@@H](CO)NC(=O)[C@@H](CCC(N)=O)NC(=O)[C@@H](CC(=O)O)NC(=O)[C@H](N)[C@H](C)O)C(C)C)C(=O)N[C@H](CC(N)=O)C(=O)N[C@H](CC(C)C)C(=O)N[C@@H](C(=O)N[C@@H](C(=O)N1CCC[C@@H]1C(=O)N[C@H](CCCNC(=N)N)C(=O)N[C@H](CCCCN)C(=O)N1CCC[C@@H]1C(=O)N[C@H](CCCNC(=N)N)C(=O)N1CCC[C@@H]1C(=O)N1CCC[C@@H]1C(=O)N[C@H](CCCNC(=N)N)C(=O)N[C@H](CCCNC(=N)N)C(=O)N[C@H](CCCNC(=N)N)C(=O)N[C@H](CCC(N)=O)C(=O)N[C@H](CCCNC(=N)N)C(=O)N[C@H](CCCNC(=N)N)C(=O)N[C@H](CCCCN)C(=O)N[C@H](CCCCN)C(=O)N[C@H](CCCNC(=N)N)C(=O)NCC(N)=O)[C@H](C)O)[C@H](C)O) [JNKI-1D-TAT, reference compound] | ineffective | ineffective | – | – | – | to varying degrees reduced calcium influx | did not significantly increase neuronal survival | did not significantly increase neuronal survival | highly effective | neuroprotective | 6.5 µM | effective | 2.1 µM | – | –
GRKKRRQRRRGGLQGRRRQGYQSIKP [PYC36L-TAT, reference compound] | – | – | – | – | – | to varying degrees reduced calcium influx | – | – | highly effective | – | – | effective | 1.5 µM | blocks neuroprotective actions | effective
